Experimental data taken from ChEMBL document CHEMBL6078645, “Expanding the Solvent/Protein Region Occupation of the Non-Nucleoside Reverse Transcriptase Inhibitor Binding Pocket for Improved Broad-Spectrum Anti-HIV-1 Efficacy: from Rigid Phenyl-Diarylpyrimidines to Flexible Hydrophilic Piperidine-Diarylpyrimidines” (J Med Chem, 2024).
Values after ≈ are worked out from the molar mass of the structure shown.

Legend:
Cytochrome P450 2C19 = Cytochrome P450 2C19 (Homo sapiens, UniProt P33261); test: Inhibition of CYP2C19 in human liver microsome preincubated with compound for 10 minutes followed NADPH addition and measured after 15 mins by LC-MS/MS analysis; format: ADME, microsomes
[1] = test system: Human immunodeficiency virus 1; test: Antiviral activity against HIV-1 harboring E138K mutant infected in human MT4 cells assessed as protection against virus-induced cytopathic effect incubated for 5 days by MTT assay; format: functional, organism-based; details: Human immunodeficiency virus 1, MT4, 120 h
[2] = test system: Human immunodeficiency virus 1; test: Antiviral activity against HIV-1 harboring RES056 mutant infected in human MT4 cells assessed as protection against virus-induced cytopathic effect incubated for 5 days by MTT assay; format: functional, organism-based; details: Human immunodeficiency virus 1, MT4, 120 h
CYP1A2 = biological target: T1, CYP1A2 (Homo sapiens, UniProt P05177); test: (§1) Inhibition of CYP1A2 in human liver microsome preincubated with compound for 10 minutes followed NADPH addition and measured after 15 mins by LC-MS/MS analysis; format: ADME, microsomes; details: human, human liver microsomes
T1 sequence (P05177 whole entry): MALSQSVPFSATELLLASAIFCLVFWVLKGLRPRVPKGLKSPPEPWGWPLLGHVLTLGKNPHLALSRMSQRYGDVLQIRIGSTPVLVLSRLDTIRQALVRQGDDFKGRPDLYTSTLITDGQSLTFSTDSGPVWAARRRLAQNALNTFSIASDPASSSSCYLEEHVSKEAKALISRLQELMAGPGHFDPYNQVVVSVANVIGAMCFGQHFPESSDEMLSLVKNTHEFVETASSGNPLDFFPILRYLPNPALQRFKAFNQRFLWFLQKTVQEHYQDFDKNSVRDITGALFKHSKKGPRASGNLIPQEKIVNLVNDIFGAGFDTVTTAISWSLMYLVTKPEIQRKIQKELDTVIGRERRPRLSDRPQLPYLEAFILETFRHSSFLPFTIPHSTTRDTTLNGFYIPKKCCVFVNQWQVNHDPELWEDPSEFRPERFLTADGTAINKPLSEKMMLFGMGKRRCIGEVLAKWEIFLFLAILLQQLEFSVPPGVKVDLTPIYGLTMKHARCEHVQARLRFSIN

CYP3A4 [3] = biological target: T2, CYP3A4 (Homo sapiens, UniProt P08684); test: (§2) Inhibition of CYP3A4 in human liver microsome using testosterone as substrate preincubated with compound for 10 minutes followed NADPH addition and measured after 15 mins by LC-MS/MS analysis; format: ADME, microsomes; details: human, human liver microsomes, probe testosterone
[4] = test system: Human immunodeficiency virus 1; test: Antiviral activity against HIV-1 harboring Y181C mutant infected in human MT4 cells assessed as protection against virus-induced cytopathic effect incubated for 5 days by MTT assay; format: functional, organism-based; details: Human immunodeficiency virus 1, MT4, 120 h
[5] = test system: Human immunodeficiency virus 1; test: Antiviral activity against HIV-1 harboring L100I mutant infected in human MT4 cells assessed as protection against virus-induced cytopathic effect incubated for 5 days by MTT assay; format: functional, organism-based; details: Human immunodeficiency virus 1, MT4, 120 h
[6] = test system: Human immunodeficiency virus 1; test: Antiviral activity against HIV-1 harboring K103N mutant infected in human MT4 cells assessed as protection against virus-induced cytopathic effect incubated for 5 days by MTT assay; format: functional, organism-based; details: Human immunodeficiency virus 1, MT4, 120 h
CYP2C9 = CYP2C9 (Homo sapiens, UniProt P11712); test: (§3) Inhibition of CYP2C9 in human liver microsome preincubated with compound for 10 minutes followed NADPH addition and measured after 15 mins by LC-MS/MS analysis; format: ADME, microsomes; details: human, human liver microsomes
[7] = test system: Human immunodeficiency virus 1; test: Antiviral activity against HIV-1 harboring F227L/V106A double mutant infected in human MT4 cells assessed as protection against virus-induced cytopathic effect incubated for 5 days by MTT assay; format: functional, organism-based; details: Human immunodeficiency virus 1, MT4, 120 h
CYP3A4 [8] = biological target: T2, CYP3A4; test: (§4) Inhibition of CYP3A4 in human liver microsome using midazolam as substrate preincubated with compound for 10 minutes followed NADPH addition and measured after 15 mins by LC-MS/MS analysis; format: ADME, microsomes; details: human, human liver microsomes, probe midazolam
[9] = Selectivity index, ratio of CC50 for cytotoxicity against human MT4 cells assessed as reduction in cell viability to EC50 for antiviral activity against wild type HIV-1 IIIB infected in human MT4 cells assessed as protection against virus-induced cytopathic effect; format: toxicity, cell-based; details: MT4 cells, read-out: Ratio CC50/EC50
[10] = Cytotoxicity against human MT4 cells assessed as reduction in cell viability incubated for 5 days by MTT assay; format: toxicity, cell-based; details: MT4 cells, time 5 day
CYP2D6 = CYP2D6 (Homo sapiens, UniProt P10635); test: (§5) Inhibition of CYP2D6 in human liver microsome preincubated with compound for 10 minutes followed NADPH addition and measured after 15 mins by LC-MS/MS analysis; format: ADME, microsomes; details: human, human liver microsomes
[11] = test system: Human immunodeficiency virus 1; test: Antiviral activity against HIV-1 harboring Y188L mutant infected in human MT4 cells assessed as protection against virus-induced cytopathic effect incubated for 5 days by MTT assay; format: functional, organism-based; details: Human immunodeficiency virus 1, MT4, 120 h
[12] = biological target: T3, Human immunodeficiency virus type 1 reverse transcriptase (Human immunodeficiency virus 1, UniProt Q72547); test: Inhibition of HIV-1 reverse transcriptase
[13] = Acute toxicity in SPF ICR mouse assessed as mortality at 2 mg/kg, IG measured for 2 weeks; format: organism-based; details: in vivo, po, 336 h
[14] = Acute toxicity in SPF ICR mouse assessed as pathological change in kidney at 2 mg/kg, IG measured on day 14; format: organism-based; details: in vivo, po, 336 h, time 14 day
[15] = Acute toxicity in SPF ICR mouse assessed as kidney damage at 2 mg/kg, IG measured on day 14; format: organism-based; details: in vivo, po, 336 h, time 14 day
[16] = Acute toxicity in SPF ICR mouse assessed as pathological change in lung at 2 mg/kg, IG measured on day 14; format: organism-based; details: in vivo, po, 336 h, time 14 day
[17] = Acute toxicity in SPF ICR mouse assessed as spleen damage at 2 mg/kg, IG measured on day 14; format: organism-based; details: in vivo, po, 336 h, time 14 day
[18] = Solubility of compound incubated for 24 hrs by HPLC analysis; format: physicochemical
[19] = Acute toxicity in SPF ICR mouse assessed as distress at 2 mg/kg, IG measured for 2 weeks; format: organism-based; details: in vivo, po, 336 h
[20] = Acute toxicity in SPF ICR mouse assessed as pathological change in heart at 2 mg/kg, IG measured on day 14; format: organism-based; details: in vivo, po, 336 h, time 14 day
[21] = biological target: T3, Human immunodeficiency virus type 1 reverse transcriptase; test: Inhibition of wildtype recombinant HIV-1 Reverse transcriptase incubated for 40 mins by spectrofluorometric analysis
Cytochrome P450 1A2 = biological target: T4, Cytochrome P450 1A2 (Homo sapiens, UniProt P05177); test: as §1; format: ADME, microsomes
T4 sequence (P05177 whole entry): T1 sequence (P05177 whole entry)

Cytochrome P450 3A4 [22] = biological target: T5, Cytochrome P450 3A4 (Homo sapiens, UniProt P08684); test: as §2; format: ADME, microsomes
[23] = Acute toxicity in SPF ICR mouse assessed as lung damage at 2 mg/kg, IG measured on day 14; format: organism-based; details: in vivo, po, 336 h, time 14 day
[24] = Acute toxicity in SPF ICR mouse assessed as liver damage at 2 mg/kg, IG measured on day 14; format: organism-based; details: in vivo, po, 336 h, time 14 day
[25] = Acute toxicity in SPF ICR mouse assessed as pathological change in brain at 2 mg/kg, IG measured on day 14; format: organism-based; details: in vivo, po, 336 h, time 14 day
Cytochrome P450 2C9 = Cytochrome P450 2C9 (Homo sapiens, UniProt P11712); test: as §3; format: ADME, microsomes
[26] = Acute toxicity in SPF ICR mouse assessed as pathological change in spleen at 2 mg/kg, IG measured on day 14; format: organism-based; details: in vivo, po, 336 h, time 14 day
[27] = biological target: Voltage-gated inwardly rectifying potassium channel KCNH2 (Homo sapiens, UniProt Q12809); test: Inhibition of hERG potassium channel stably expressed in CHO cells at -80 mV holding potential by whole-cell patch-clamp analysis; format: toxicity, cell-based
Cytochrome P450 3A4 [28] = biological target: T5, Cytochrome P450 3A4; test: as §4; format: ADME, microsomes
[29] = Acute toxicity in SPF ICR mouse at 2 mg/kg, IG measured for 2 weeks; format: organism-based; details: in vivo, po, 336 h
[30] = Acute toxicity in SPF ICR mouse assessed as heart damage at 2 mg/kg, IG measured on day 14; format: organism-based; details: in vivo, po, 336 h, time 14 day
Cytochrome P450 2D6 = Cytochrome P450 2D6 (Homo sapiens, UniProt P10635); test: as §5; format: ADME, microsomes
[31] = Solubility of compound in phosphate buffer at pH 7.4 incubated for 24 hrs by HPLC analysis; format: physicochemical
[32] = Solubility of compound in phosphate buffer at pH 2 incubated for 24 hrs by HPLC analysis; format: physicochemical
[33] = Acute toxicity in SPF ICR mouse assessed as change in body weight at 2 mg/kg, IG measured for 2 weeks; format: organism-based; details: in vivo, po, 336 h
[34] = Solubility of compound in phosphate buffer at pH 7 incubated for 24 hrs by HPLC analysis; format: physicochemical
[35] = Acute toxicity in SPF ICR mouse assessed as pathological change in liver at 2 mg/kg, IG measured on day 14; format: organism-based; details: in vivo, po, 336 h, time 14 day
[36] = Acute toxicity in SPF ICR mouse assessed as brain damage at 2 mg/kg, IG measured on day 14; format: organism-based; details: in vivo, po, 336 h, time 14 day
[37] = Acute toxicity in SPF ICR mouse assessed as abnormal behavior at 2 mg/kg, IG measured for 2 weeks; format: organism-based; details: in vivo, po, 336 h

Chain of Cytochrome P450 2C19 (P33261 whole entry): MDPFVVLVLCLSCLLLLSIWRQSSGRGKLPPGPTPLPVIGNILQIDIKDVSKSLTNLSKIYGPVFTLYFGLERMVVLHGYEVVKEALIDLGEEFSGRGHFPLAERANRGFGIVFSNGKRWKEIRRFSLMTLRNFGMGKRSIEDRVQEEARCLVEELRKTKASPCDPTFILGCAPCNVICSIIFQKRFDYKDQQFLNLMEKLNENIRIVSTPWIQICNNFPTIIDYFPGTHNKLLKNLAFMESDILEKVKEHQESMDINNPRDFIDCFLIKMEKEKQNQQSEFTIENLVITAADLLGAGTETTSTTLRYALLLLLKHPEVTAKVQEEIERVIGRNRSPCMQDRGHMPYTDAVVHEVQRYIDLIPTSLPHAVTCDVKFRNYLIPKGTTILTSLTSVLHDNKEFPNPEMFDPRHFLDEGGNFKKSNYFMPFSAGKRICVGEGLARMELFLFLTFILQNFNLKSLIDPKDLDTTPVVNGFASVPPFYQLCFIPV
T5 sequence (P08684 whole entry): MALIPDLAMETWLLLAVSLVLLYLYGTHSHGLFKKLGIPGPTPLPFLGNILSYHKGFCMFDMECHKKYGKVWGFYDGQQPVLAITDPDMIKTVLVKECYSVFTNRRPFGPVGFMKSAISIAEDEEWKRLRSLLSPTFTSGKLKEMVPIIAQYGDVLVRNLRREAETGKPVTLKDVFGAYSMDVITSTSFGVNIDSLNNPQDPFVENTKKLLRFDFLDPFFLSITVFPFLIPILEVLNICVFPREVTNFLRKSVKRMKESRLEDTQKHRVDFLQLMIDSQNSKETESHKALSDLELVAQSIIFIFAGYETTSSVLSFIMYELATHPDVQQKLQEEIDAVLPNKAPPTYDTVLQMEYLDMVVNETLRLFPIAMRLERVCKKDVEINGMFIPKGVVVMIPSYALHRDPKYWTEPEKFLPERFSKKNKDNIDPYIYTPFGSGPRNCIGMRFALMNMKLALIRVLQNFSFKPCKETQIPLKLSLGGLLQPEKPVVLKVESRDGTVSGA
T2 sequence (P08684 whole entry): as above
Chain of Cytochrome P450 2C9 (P11712 whole entry): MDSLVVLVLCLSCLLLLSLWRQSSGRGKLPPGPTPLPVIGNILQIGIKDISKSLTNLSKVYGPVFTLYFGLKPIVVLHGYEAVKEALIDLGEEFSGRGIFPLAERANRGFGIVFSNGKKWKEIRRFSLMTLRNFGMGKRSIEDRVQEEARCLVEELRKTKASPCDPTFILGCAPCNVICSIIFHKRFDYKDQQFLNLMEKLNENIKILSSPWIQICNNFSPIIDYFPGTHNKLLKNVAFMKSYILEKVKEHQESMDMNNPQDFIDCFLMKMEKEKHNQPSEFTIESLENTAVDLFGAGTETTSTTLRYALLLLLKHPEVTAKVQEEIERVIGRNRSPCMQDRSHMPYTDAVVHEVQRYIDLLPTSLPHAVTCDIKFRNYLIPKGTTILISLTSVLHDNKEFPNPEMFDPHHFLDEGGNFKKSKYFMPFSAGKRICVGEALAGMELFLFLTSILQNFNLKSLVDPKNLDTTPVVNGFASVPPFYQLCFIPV
Chain of CYP2C9 (P11712 whole entry): as above
Chain of Voltage-gated inwardly rectifying potassium channel KCNH2 (Q12809 whole entry): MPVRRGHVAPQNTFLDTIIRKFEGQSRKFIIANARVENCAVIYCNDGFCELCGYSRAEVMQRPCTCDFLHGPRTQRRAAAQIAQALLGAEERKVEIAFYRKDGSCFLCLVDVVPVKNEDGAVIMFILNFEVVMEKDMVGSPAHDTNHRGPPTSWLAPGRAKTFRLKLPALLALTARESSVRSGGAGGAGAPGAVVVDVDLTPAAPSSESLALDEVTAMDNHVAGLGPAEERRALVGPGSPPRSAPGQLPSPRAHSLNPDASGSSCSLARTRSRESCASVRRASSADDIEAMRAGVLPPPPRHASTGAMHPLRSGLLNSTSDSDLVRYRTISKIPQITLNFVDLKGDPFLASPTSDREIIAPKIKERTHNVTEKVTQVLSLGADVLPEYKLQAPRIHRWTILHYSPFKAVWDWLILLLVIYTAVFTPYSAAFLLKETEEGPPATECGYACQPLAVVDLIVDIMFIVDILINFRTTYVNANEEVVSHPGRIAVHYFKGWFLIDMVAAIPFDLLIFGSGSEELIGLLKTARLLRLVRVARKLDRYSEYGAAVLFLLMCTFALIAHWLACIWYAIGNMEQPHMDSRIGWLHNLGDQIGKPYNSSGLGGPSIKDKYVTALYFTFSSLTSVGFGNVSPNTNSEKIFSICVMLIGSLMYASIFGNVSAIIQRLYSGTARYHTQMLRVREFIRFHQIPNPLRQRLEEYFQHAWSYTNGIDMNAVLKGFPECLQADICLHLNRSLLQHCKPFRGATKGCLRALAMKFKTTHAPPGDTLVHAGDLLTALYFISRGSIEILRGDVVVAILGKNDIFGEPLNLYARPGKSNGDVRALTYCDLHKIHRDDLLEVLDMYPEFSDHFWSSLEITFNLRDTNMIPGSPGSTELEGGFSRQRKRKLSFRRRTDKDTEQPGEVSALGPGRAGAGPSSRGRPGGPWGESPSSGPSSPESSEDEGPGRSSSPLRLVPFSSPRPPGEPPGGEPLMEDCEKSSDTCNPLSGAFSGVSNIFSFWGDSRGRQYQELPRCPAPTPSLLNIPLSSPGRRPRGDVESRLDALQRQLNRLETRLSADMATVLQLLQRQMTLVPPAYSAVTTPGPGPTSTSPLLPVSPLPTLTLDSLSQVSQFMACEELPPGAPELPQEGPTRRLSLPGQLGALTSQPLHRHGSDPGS
Chain of CYP2D6 (P10635 whole entry): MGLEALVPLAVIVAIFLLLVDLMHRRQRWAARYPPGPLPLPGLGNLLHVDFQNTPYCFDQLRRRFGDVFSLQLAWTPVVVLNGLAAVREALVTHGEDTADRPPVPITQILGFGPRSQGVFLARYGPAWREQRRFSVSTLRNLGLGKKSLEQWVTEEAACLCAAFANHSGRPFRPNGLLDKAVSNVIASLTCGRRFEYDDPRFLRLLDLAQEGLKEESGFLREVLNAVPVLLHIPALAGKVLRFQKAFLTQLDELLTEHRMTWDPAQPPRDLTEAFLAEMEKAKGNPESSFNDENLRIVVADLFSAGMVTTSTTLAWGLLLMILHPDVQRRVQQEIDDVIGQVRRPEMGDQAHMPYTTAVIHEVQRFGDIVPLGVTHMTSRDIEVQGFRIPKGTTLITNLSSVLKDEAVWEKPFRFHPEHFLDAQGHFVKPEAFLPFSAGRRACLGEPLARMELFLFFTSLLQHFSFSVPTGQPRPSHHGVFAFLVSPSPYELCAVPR
Chain of Cytochrome P450 2D6 (P10635 whole entry): as above

## N#Cc1ccc(Nc2ncc(CO)c(Oc3c(F)cc(-c4ccc(C#N)cc4)cc3F)n2)cc1
Cytochrome P450 2C19
  IC50: 14000 nM
[1]
  EC50: 4 nM
[2]
  EC50: 969 nM
CYP1A2
  IC50 at 15 min: > 25000 nM
CYP3A4 [3]
  IC50 at 15 min: > 25000 nM
[4]
  EC50: 15 nM
[5]
  EC50: 8 nM
[6]
  EC50: 2 nM
CYP2C9
  IC50 at 15 min: > 25000 nM
[7]
  EC50: 1100 nM
CYP3A4 [8]
  IC50 at 15 min: > 25000 nM
[9]
  selectivity ratio: 256000
[10]
  CC50 at 120 h: 226000 nM
CYP2D6
  IC50 at 15 min: > 25000 nM
[11]
  EC50: 161 nM
[12]
  EC50: 1 nM

## Cc1cc(-c2ccc(C#N)cc2)cc(C)c1Oc1nc(NC2CCN(Cc3ccc(S(N)(=O)=O)cc3)CC2)ncc1CO
[13]
  Activity: Non-toxic
Cytochrome P450 2C19
  IC50: 25700 nM
[14]
  Activity: Non-toxic
[15]
  Activity: Non-toxic
[16]
  Activity: Non-toxic
[17]
  Activity: Non-toxic
[18]
  solubility at 24 h: < 1 µg/mL
[19]
  Activity: Non-toxic
[1]
  EC50: 8 nM
[20]
  Activity: Non-toxic
[21]
  IC50: 293 nM
[2]
  EC50: 45 nM
Cytochrome P450 1A2
  IC50: 50000 nM
Cytochrome P450 3A4 [22]
  IC50: 50000 nM
[23]
  Activity: Non-toxic
[24]
  Activity: Non-toxic
[25]
  Activity: Non-toxic
[4]
  EC50: 10 nM
[5]
  EC50: 9 nM
[6]
  EC50: 9 nM
Cytochrome P450 2C9
  IC50: 17600 nM
[26]
  Activity: Non-toxic
[27]
  IC50: 20000 nM
[7]
  EC50: 15 nM
Cytochrome P450 3A4 [28]
  IC50: 50000 nM
[9]
  selectivity ratio: 6540
[29]
  Activity: Non-toxic
[10]
  CC50 at 120 h: 18200 nM
[30]
  Activity: Non-toxic
Cytochrome P450 2D6
  IC50: 50000 nM
[31]
  solubility at 24 h: < 1 µg/mL
[32]
  solubility at 24 h: 3520 µg/mL (≈ 5890 µM)
[33]
  Activity: Non-toxic
[34]
  solubility at 24 h: < 1 µg/mL
[11]
  EC50: 23 nM
[12]
  EC50: 3 nM
[35]
  Activity: Non-toxic
[36]
  Activity: Non-toxic
[37]
  Activity: Non-toxic
